How the values were obtained:
[1] = test system: normal rats receiving a high-fat diet; conditions: daily peritoneal injection, vs untreated rats; cited from earlier work
[2] = test system: nuclear receptors of the thyroid hormones, TRα-1 and TRβ-1; conditions: literature statements; cited from earlier work
Wistar rats [3] = test: Growth rate (body weight) and food intake of Wistar rats; type: in vivo, rat
Method: Adult male rat bred in the animal room facilities of Laboratory of Fundamental and Applied Bioenergetics (Wistar strain) or purchased from Charles-River Laboratories, Domaine des oncins, L'ARBRESLE France [(genetically obese normoglycemic (Zucker or Fa/Fa) or diabetic (ZDF)] were caged individually in stainless steel hanging cages and maintained in a 22° C., 50±10% relative humidity and 12 h:12 h light:dark environment. All animals were fed ad libitum with a standard rat chow (Safe A04, Villemoisson, France) and tap water. Body mass and food intake were recorded twice/thrice a week and fresh food was provided at the same time to ensure minimal disturbance to the animals' food behavior.
Eight-week old rats (300 g±10 g) were anesthetized by simultaneous intraperitoneal injection of diazepam 4 mg/kg and ketamine 100 mg/kg. In order to maintain body temperature during the surgery (10 min), animals were placed on a warm blanket. After interscapular shaving, a small incision of 0.5 cm of the skin allows the subcutaneous implantation of a small pellet (containing rT3 or 3′,3-T2) with a 10-gauge precision trochar. The pellets, manufactured by Innovative Research of America (Sarasota, Fla., USA) are constituted of a biodegradable matrix that effectively and continuously release the active product in the animal.
[…] (reverseT3) or 3-3′ diiodothyronine (3-3′ T2) were used at different doses (5, 0.5, or 0.1 mg/pellet) were implanted in order to provide a continuous and constant drug delivery over 60 days (which represents 25 μg, 2.5 μg or 0.5 μg/day/100 g BW).
Wistar rats were treated with rT3 hormone by a daily intraperitoneal injection (IP) (25 μg/100 g BW), a daily sub-cutaneous injection (SC) (25 μg/100 g BW), or a per os administration included in the rat food (25 μg/100 g BW). The continuous and constant administration was performed by using a pellet (25 μg/100 g BW).
However the role of the administration site was further investigated by comparing continuous administration of rT3 by osmotic pump implanted either subcutaneously or intraperitonally with the reference treatment administered by sub-cutaneous pellets. Wistar rats were treated for 21 days with placebo, sub-cutaneous pellet or sub-cutaneous or intraperitoneal osmotic pumps. rT3 was administered continuously (2.5 μg/100 g).
Wistar rats were treated by a continuous and constant administration of low doses of rT3 by 3 different methods of administration: • a sub-cutaneous pellet, • an osmotic pump placed under the skin, and • an osmotic pump placed in the peritoneal cavity.

liver mitochondria = test: Rate of liver mitochondrial oxygen consumption (JO2) of treated Wistar rats; type: in vivo, rat; conditions: high dose 250 μg/kg BW/day, various substrates, vs placebo
Method: (§1) The major part of the liver and the red part of each quadriceps were rinsed, and chopped into isolation medium (250 mM sucrose, 20 mM Tris-HCl and 1 mM EGTA-Tris, pH 7.4). Nuclei and cell debris were removed by centrifugation at 800 g for 10 min. Mitochondria were then isolated from the supernatant by spinning twice at 8,000 g for 10 minutes. The mitochondrial pellet was resuspended in 0.5 ml of isolation buffer and kept on ice. Mitochondrial protein was measured by the bicinchoninic acid method (Pierce, Rockford, Ill.). The final mitochondrial suspensions were maintained on ice and were used for measurements of oxygen consumption rate.
(§2) The rate of mitochondrial oxygen consumption (JO2) was measured at 30° C. in an incubation chamber with a Clark-type O2 electrode filled with 2 ml of incubation medium (125 mM KCl, 10 mM Pi-Tris, 20 mM Tris-HCl, 0.1 mM EGTA, pH 7.2). All measurements were performed using mitochondria (1.0 or 0.2 mg mitochondrial protein/ml for liver and skeletal muscle) incubated either with various substrates: glutamate/malate (5 mM/2.5 mM) and succinate (5 mM), alone or in combination, palmitoyl carnitine (55 μM) and octanoyl carnitine (100 μM). For each substrate, JO2 was recorded in the presence of the substrate alone (State 2) and following the addition of 1 mM ADP (state 3). Oligomycin (1.25 μg/mg protein) was added to the mitochondrial suspension to determine the non-phosphorylating respiratory rate (state 4). The incubation medium was constantly stirred with a built-in electromagnetic stirrer and bar flea. The efficiency of the mitochondrial oxidative phosphorylation was assessed by the state 3/state 4 ratio which measures the degree of control imposed on oxidation by phosphorylation (respiratory control ratio, RCR).

Wistar rats [4] = test: Plasma concentrations of glucose, triglycerides, cholesterol, FFA and HDL in Wistar rats; type: in vivo, rat; conditions: day of sacrifice, vs placebo
Description: These measurements were done on venous blood of the rats the day of the sacrifice.
(§3) At the end of the experimental period, animals were sacrificed by decapitation, in order to avoid the well-known effects of general anesthetics on mitochondrial metabolism. Blood samples were immediately collected and plasma was frozen for subsequent determination of serum metabolites and hormones. Liver, muscles and fat depots were quickly excised and weighed. Liver median lobe was rapidly freeze-clamped. Muscles (plantaris, soleus and gastrocnemius) were frozen in isopentane precooled in liquid nitrogen. Mesenteric fat consisted of adipose tissue surrounding the gastro-intestinal tract from the gastro-oesophageal sphincter to the end of the rectum with special care taken in distinguishing and removing the pancreas. Retroperitoneal fat pad was taken as the distinct depot behind each kidney along the lumbar muscles. Epididymal fat consisted of adipose tissue on top of the epididymis. For subcutaneous depot measurement, a rectangular piece of skin was taken on the right side of each animal from the median line of the abdomen between the spine and the right hip to the first rib. Interscapular brown adipose tissue was removed and dissected free from adjacent muscles and white adipose tissue. The heart ventricles, the right kidney and the spleen were also excised, weighed and frozen.
Glucose and 3-hydroxybutyrate (3-HB) were measured enzymatically and non esterified fatty acid (NEFA) by colorimetric assay (Wako Chemicals).
Triglycerides and cholesterol were measured by classical routine automate apparatus.

Wistar rats [5] = test: Indirect calorimetry (energy expenditure, respiratory quotient) of Wistar rats; type: in vivo, rat; conditions: 25 μg/100 g BW pellet, vs placebo
Description: Energy expenditure as well as the nature of substrate oxidized (carbohydrates or lipids) were investigated by indirect calorimetry. This principle is based on the determinations of CO2 release (VCO2) and O2 consumption (VO2) by each animal. It assumes that O2 is entirely involved in substrate oxidation in the respiratory chain (leading to water production) while CO2 release is related to substrate decarboxylation (in the Krebs' cycle). These measurements allow assessing energy expenditure (EE) and respiratory quotient ([…], RQ). EE represent the absolute energy dissipation during rest and activity. RQ is a relative measurement indicating the ratio of carbohydrate versus lipid involved in oxidative pathway. A ratio of 1.0 indicates exclusive carbohydrate oxidation while a ratio of 0.7 indicates exclusive lipid oxidation. Each value between these two extreme values indicates the relative proportion of each substrate (of note protein oxidation was not evaluated). As an example, RQ approaches 0.7 during fasting, indicating lipid oxidation, conversely after feeding RQ increases close to 1 indicating carbohydrate oxidation resulting from food intake and blood insulin rise. Likewise, animals fed high-carbohydrate diets have higher RQs than those fed high-fat diets.
The indirect calorimetry system (Panlab, Barcelona, Spain) consists of cages, pumps, flow controllers, valves, and analyzers. It is computer-controlled in order to sequentially measure O2 and CO2 concentrations as well as air flow in four separate cages allowing four simultaneous determinations. Rats are isolated in one of the four metabolic chambers, and room air is used as a reference to monitor ambient O2 and CO2 concentrations periodically.
At predefined intervals, the computer sends a signal to store differential CO2 and O2 concentrations, flow rate, allowing computing VCO2, VO2, RQ, and EE (Weir equation) with data acquisition hardware (Metabolism, Panlab, Barcelona, Spain).

Wistar rats [6] = test: Body composition (adipose tissues, skeletal muscles, brown adipose tissue) of Wistar rats; type: in vivo, rat; conditions: three weeks, vs placebo
Description: as §3

muscle mitochondria = test: Rate of muscle mitochondrial oxygen consumption (JO2) of treated Wistar rats; type: in vivo, rat; conditions: 250 μg/kg BW/day, vs placebo
Method: as §1, §2

[7] = Wistar rats, high dose 250 μg/kg BW/day
[8] = high dose 25 μg/100 g BW pellet

NC(Cc1cc(I)c(Oc2ccc(O)cc2)c(I)c1)C(=O)O (centres unmarked) [3,5-T2]
Fat deposit [1]: less fat deposit
Weight gain [1]: gained less weight

N[C@@H](Cc1cc(I)c(Oc2ccc(O)c(I)c2)c(I)c1)C(=O)O [T3]
Binding to the nuclear (TH) receptors [2]: binds very efficiently

N[C@@H](Cc1cc(I)c(Oc2cc(I)c(O)c(I)c2)c(I)c1)C(=O)O [T4, thyroxine]
Binding to the nuclear (TH) receptors [2]: binds less efficiently

N[C@@H](Cc1ccc(Oc2ccc(O)c(I)c2)c(I)c1)C(=O)O [3,3′-T2, 3′,3-diiodothyronine]
Food intake immediately after the pellet (Wistar rats [3]; 25 μg/100 g BW pellet, from day 4 until day 7): decrease
Food intake (appetite) (Wistar rats [3]; high dose 25 μg/100 g BW pellet, 21 days, vs placebo): higher value as compared to those of placebo animals
Growth rate (body weight) (Wistar rats [3]; high dose 25 μg/100 g BW, subcutaneous pellet, 21 days, vs placebo): did not show any weight gain
Liver mitochondrial respiratory rate, non-phosphorylating (state 4, oligomycin) (liver mitochondria): much higher as compared to placebo
Liver mitochondrial respiratory rate, phosphorylating (state 3, ADP) (liver mitochondria): very significant increased respiratory rate
Cholesterol plasmatic concentration (Wistar rats [4]; Wistar rats, 250 μg/kg BW/day): significantly lower
Plasma free fatty acids (FFA) (Wistar rats [4]; [7]): higher
Triglycerides plasmatic concentration (Wistar rats [4]; [7]): significantly lower
Fasting glucose plasmatic concentration (Wistar rats [4]; normal (non diabetic) Wistar rats, 250 μg/kg BW/day): slightly increased
Respiratory quotient (RQ) during the day (diurnal period) (Wistar rats [5]): lower than that of placebo
Respiratory quotient (RQ) during the night (Wistar rats [5]): almost the same as those described for rT3
Fat mass (Wistar rats [6]; 250 μg/kg BW pellet): significantly decreased
Brown adipose tissue mass (Wistar rats [6]; [8]): significantly increased
Muscle mass (lean body mass) (Wistar rats [6]; [8]): not affected
Muscle mitochondrial respiration, non-phosphorylating (state 4) (muscle mitochondria): failed to substantially affect
Muscle mitochondrial respiration, phosphorylating (state 3) (muscle mitochondria): failed to substantially affect

From patent US20110064773A1, “PHARMACEUTICAL COMPOSITIONS COMPRISING A THYROID HORMON AND THEIR THERAPEUTIC USE” (UNIVERSITE JOSEPH FOURIER, priority 2007, published 2011)
